“And” between values parts separate entries of the source, which are not always exact repeats. Identical values can stand only once. Like-named read-outs stand apart in the source and are kept apart here.
Assays:
Shh = target: T1, Shh (Mus musculus, UniProt Q62226); experiment: Shh autoprocessing in stably transfected HK293 cells (immunoblot); assay type: cell-based; conditions: added during the 24-hour induction period; doses up to 5-fold higher than those required to completely inhibit Shh signaling
T1 construct: expressed in transfected cells; host or cells: HK293 cells, Ecdysone-Inducible Mammalian Expression System (Invitrogen)
T1 sequence (Q62226 25-437): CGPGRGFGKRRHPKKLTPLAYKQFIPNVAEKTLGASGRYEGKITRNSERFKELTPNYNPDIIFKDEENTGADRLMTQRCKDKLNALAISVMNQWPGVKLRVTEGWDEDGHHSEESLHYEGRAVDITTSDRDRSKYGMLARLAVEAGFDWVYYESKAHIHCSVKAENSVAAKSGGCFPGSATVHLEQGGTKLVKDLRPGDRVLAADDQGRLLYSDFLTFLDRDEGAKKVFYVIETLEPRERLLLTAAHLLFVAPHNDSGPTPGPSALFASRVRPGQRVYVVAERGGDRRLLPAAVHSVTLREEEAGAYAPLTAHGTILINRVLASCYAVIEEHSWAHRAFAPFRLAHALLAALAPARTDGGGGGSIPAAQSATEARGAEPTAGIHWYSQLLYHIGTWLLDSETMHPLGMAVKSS
Description: To examine potential effects of these compounds on Shh processing we utilized HK293 cells cultured in lipid-depleted serum and carrying a stable integrated construct for expression of Shh under ecdysone-inducible control (47). Shh protein expression in these cells can be induced by addition of muristerone A, an ecdysone analog.
• 1. M. Hammerschmidt, A. Brook, A. P. McMahon, Trends Genet, 13, 14-21 (1997). • 2. C. Chiang, et al., Nature, 383,407-413 (1996). • 3. Y. Tanabe, T. M. Jessell, Science 274, 1115-1123 (1996). • 4. T. P. Yamaguchi, Curr. Opin. Genet. Dev. 7, 513-518 (1997). • 5. N. Shubin, C. Tabin, S. Carroll, Nature 388, 639-648 (1997). • 6. A. E. Oro, et al., Science 276, 817-821 (1997). • 7. M. M. Cohen, K. K. Sulik, J. Craniofac. Genet. Deve. Biol. 12, 196-244 (1992). • 8. E. Belloni, et al., Nature Genet. 14, 353-356 (1996). • 9. E. Roessler, et al., Nature Genet. 14, 357-360 (1996). • 10. J. A. Porter, et al., Nature 374, 363-366 (1995). • 11. J. A. Porter, K. E. Young, P. A. Beacy, Science 274, 255-259 (1996b). • 12. J. J. Lee, et al., Science 266, 1528-1537 (1994). • 13. J. A. Porter, et al., Cell 86, 21-34 (1996a). • 14. C. Roux, Arch. Franc. Pediatr. 21, 451-464 (1964). • 15. C. Roux, C. R. Soc. Biol. 160, 1353-1357 (1966). • 16. D. B. Dehart, L. Lanoue, G. S. Tinit, K. K. Sulik, Am J. Med. Genet. 68, 328-337 (1997). • 17. M. Kraml, J. F. Bagli, D. Dvornik, Biochem. and Biophysical Res. Com. 15, 455-457 (1964). • 18. J. Avigan, D. Steinberg, H. E. Vroman, M. J. Thompson, E. Mosettig, J. Biol. Chem 235, 3123-3126 (1960). • 19. R. B. Clayton, A. N. Nelson, I. D. Frantz Jr., J. Lipid Res. 4, 166-178 (1963). • 20. J. Aufenanger, J. Pill, K. Stegmeier, F. H. Schmidt, Horm. Metabol. Res. 17, 612-613 (1986). • 21. […] G. Popjak, A. Meenean, E. J. Parish, W. D. Nes, J. Biol. Chem 264,6230-6238 (1989). • 23. H. Yoshikawa, Brain Deve. 13, 115-120 (1991). • 24. R. I. Kelley, et al., Am. J. Of Med. Gen. 66, 478-484 (1996). • 25. G. S. Tint, et al., New England Journal of Medicine 330, 107-113 (1994). • 26. T.E. Willnow, et al., Proc. Natl. Acad. Sci USA 93, 8460-8464 (1996). • 27. S. Stefansson, D. A. Chappell, K. M. Argraves, D. K. Strickland, W. S. Argraves, J. Biol. Chem. 270, 19417-19421 (1995). • 28. W. Binns, L. F. James, J. L. Shupe, G. Everett, Am. J. Vet. Res. 24, 1164-1174 (1963). • 29. R. F. Keeler, W. Binns, Teratology 1, 5-10 (1968). • 30. P. A. Beachy, et al., CSH Symp. Quant. Biol. 62, in press (1997). • 31. E. D. Carstea, et al., Science 277, 228-231 (1997). • 32. S. K. Loftus, et al., Science 277, 232-235 […]. • 33. L. V. Goodrich, L. Milenkovic, K. M. Higgins, M. P. Scott, Science 277, 1109-1113 (1997). • 34. H. Kumagai, K. T. Chun, R. D. Simoni, J. Biol. Chem. 270, 19107-19113 (1995). • 35. G. Gil, J. R. Faust, D. J. Chin, J. L. Goldstien, M. S. Brown, Cell 41, 249-258 (1985). • 36. X. Hua, A. Nohturfft, J. L. Goldstein, M. S. Brown, Cell 87, 415-426 (1996). • 37. M. S. Brown, J. L. Goldstein, Cell 89, 331-340 (1997). • 38. M. M. Bryden, C. Perry, R. F. Keeler, Teratology 8, 18-28 (1973). • 39. M. L. Omnell, F. R. P. Sim, R. F. Keeler, L. C. Harne, K. W. Brown, Teratology 42, 105-119 (1990). • 40. Fertile chick eggs (white leghorn) were placed in a humidified incubator at 37.5° C in a rotating tray for 14 hours. […] The window was taped and the eggs incubated for an additional 4 days. The embryos were dissected in phosphate buffered saline (PBS, pH 7.2).

Shh protein = Shh protein localization in floor plate cells of treated chick embryos; assay type: in vivo; conditions: embryos treated after floor plate induction
rat hepatoma cells = experiment: Cholesterol Esterification Assay (esterification of plasma membrane cholesterol); assay type: cell-based
Description: Table 1. […] Table 1. Effects of synthetic and plant-derived compounds on cholesterol homeostasis. […]

Shh-N = experiment: Intermediate neural plate explant response to exogenous Shh-N protein; assay type: cell-based, chick
endogenous Shh signaling = experiment: Midline neural plate/notochord explant assay of endogenous Shh signaling; assay type: cell-based, chick
[1] = tested on: primary human lymphoblasts; experiment: Cholesterol Biosynthesis Assay (sterol profiles of cultured cells); assay type: cell-based; conditions: for Percent Sterols: 2. C28 Sterols / Percent Sterols: 3. C29 Sterols / Percent Sterols: Cholesterol / Percent Sterols: d. Zymosterol / Percent Sterols: e. Cholesta-8(14)-en-3ß-ol / Percent Sterols: f. 7 Dehydrocholesterol / Total Sterols (µg/mg protein) / Percent Sterols: c. Cholesta-7,24-dien-3ß-ol: five days
BMP7 = experiment: Neural plate explant response to BMP7 (migratory HNK-1 positive cells); assay type: cell-based, chick; conditions: 10 µM, 100 ng/ml BMP7, ventral neural plate explants
His6Hh-C = target: T2, His6Hh-C (Drosophila melanogaster, UniProt Q02936); experiment: In vitro Hh autoprocessing reaction with purified components; assay type: biochemical
T2 construct: made in house
T2 sequence (Q02936 252-471): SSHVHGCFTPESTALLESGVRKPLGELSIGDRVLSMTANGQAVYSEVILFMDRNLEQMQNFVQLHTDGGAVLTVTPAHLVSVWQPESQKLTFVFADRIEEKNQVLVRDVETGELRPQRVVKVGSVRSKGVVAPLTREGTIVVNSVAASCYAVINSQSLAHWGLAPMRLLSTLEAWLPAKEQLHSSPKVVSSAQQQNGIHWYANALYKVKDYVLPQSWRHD

chick embryos = tested on: chick embryos
Description: • 1. M. Hammerschmidt, A. Brook, A. P. McMahon, Trends Genet, 13, 14-21 (1997). • 2. C. Chiang, et al., Nature, 383,407-413 (1996). • 3. Y. Tanabe, T. M. Jessell, Science 274, 1115-1123 (1996). • 4. T. P. Yamaguchi, Curr. Opin. Genet. Dev. 7, 513-518 (1997). • 5. N. Shubin, C. Tabin, S. Carroll, Nature 388, 639-648 (1997). • 6. A. E. Oro, et al., Science 276, 817-821 (1997). • 7. M. M. Cohen, K. K. Sulik, J. Craniofac. Genet. Deve. Biol. 12, 196-244 (1992). • 8. E. Belloni, et al., Nature Genet. 14, 353-356 (1996). • 9. E. Roessler, et al., Nature Genet. 14, 357-360 (1996). • 10. J. A. Porter, et al., Nature 374, 363-366 (1995). • 11. J. A. Porter, K. E. Young, P. A. Beacy, Science 274, 255-259 (1996b). • 12. J. J. Lee, et al., Science 266, 1528-1537 (1994). • 13. J. A. Porter, et al., Cell 86, 21-34 (1996a). • 14. C. Roux, Arch. Franc. Pediatr. 21, 451-464 (1964). • 15. C. Roux, C. R. Soc. Biol. 160, 1353-1357 (1966). • 16. D. B. Dehart, L. Lanoue, G. S. Tinit, K. K. Sulik, Am J. Med. Genet. 68, 328-337 (1997). • 17. M. Kraml, J. F. Bagli, D. Dvornik, Biochem. and Biophysical Res. Com. 15, 455-457 (1964). • 18. J. Avigan, D. Steinberg, H. E. Vroman, M. J. Thompson, E. Mosettig, J. Biol. Chem 235, 3123-3126 (1960). • 19. R. B. Clayton, A. N. Nelson, I. D. Frantz Jr., J. Lipid Res. 4, 166-178 (1963). • 20. J. Aufenanger, J. Pill, K. Stegmeier, F. H. Schmidt, Horm. Metabol. Res. 17, 612-613 (1986). • 21. […] G. Popjak, A. Meenean, E. J. Parish, W. D. Nes, J. Biol. Chem 264,6230-6238 (1989). • 23. H. Yoshikawa, Brain Deve. 13, 115-120 (1991). • 24. R. I. Kelley, et al., Am. J. Of Med. Gen. 66, 478-484 (1996). • 25. G. S. Tint, et al., New England Journal of Medicine 330, 107-113 (1994). • 26. T.E. Willnow, et al., Proc. Natl. Acad. Sci USA 93, 8460-8464 (1996). • 27. S. Stefansson, D. A. Chappell, K. M. Argraves, D. K. Strickland, W. S. Argraves, J. Biol. Chem. 270, 19417-19421 (1995). • 28. W. Binns, L. F. James, J. L. Shupe, G. Everett, Am. J. Vet. Res. 24, 1164-1174 (1963). • 29. R. F. Keeler, W. Binns, Teratology 1, 5-10 (1968). • 30. P. A. Beachy, et al., CSH Symp. Quant. Biol. 62, in press (1997). • 31. […]

[2] = read-out: Percent Inhibition (incorporation of label into cholesteryl ester*) ^3H-Cholesterol
[3] = read-out: Percent Inhibition (incorporation of label into cholesteryl ester*) ^14C-Oleic Acid

CC1=C2C(=O)[C@H]3[C@@H](CC=C4C[C@@H](O)CC[C@@]43C)[C@@H]2CC[C@]12O[C@@H]1C[C@H](C)CN[C@H]1[C@H]2C [Jervine, jervine]
Shh-Np production and accumulation of unprocessed precursor (Shh): did not diminish Shh-Np production nor induce accumulation of unprocessed precursor | localization of Shh protein within floor plate cells (Shh protein): normal apical localization of Shh protein | inhibition at 2.5 µM (rat hepatoma cells; [2]): 24% | inhibition at 2.5 µM (rat hepatoma cells; [3]): 28% | inhibition at 5 µM (rat hepatoma cells; [2]): 44% | inhibition at 5 µM (rat hepatoma cells; [3]): 36% | inhibition at 10 µM (rat hepatoma cells; [2]): 50% | inhibition at 10 µM (rat hepatoma cells; [3]): 49% | concentration that inhibits the repression of Pax7 expression by 2 nM Shh-N (Shh-N): 0.125 µM | doses at which HNF3β and Isl-1 induction are completely blocked (Shh-N): 0.5 µM | intermediate levels at which induction of HNF3β is blocked while induction of Isl-1 is maintained or expanded (Shh-N): 0.25 µM | Higher doses that fully inhibit HNF3β and Isl-1 induction (endogenous Shh signaling): 4.0 µM | Intermediate doses that block induction of HNF3β while permitting induction of Isl-1 (endogenous Shh signaling): 0.5 µM | Percent Sterols: a. Desmosterol [1]: 2.7% and 2.5% and 2.4% | Percent Sterols: 2. C28 Sterols ([1]; 1.25 µM): 1.2% | Percent Sterols: 3. C29 Sterols ([1]; 1.25 µM): 0.8% | Percent Sterols: Cholesterol ([1]; 1.25 µM): 90% | Percent Sterols: d. Zymosterol ([1]; 1.25 µM): 1.7% | Percent Sterols: e. Cholesta-8(14)-en-3ß-ol ([1]; 1.25 µM): 1.0% | Percent Sterols: f. 7 Dehydrocholesterol ([1]; 1.25 µM): 1.5% | Total Sterols (µg/mg protein) ([1]; 1.25 µM): 8.8 µg/mg protein | Percent Sterols: 2. C28 Sterols ([1]; 2.5 µM): 0.7% | Percent Sterols: 3. C29 Sterols ([1]; 2.5 µM): 0.8% | Percent Sterols: Cholesterol ([1]; 2.5 µM): 90% | Percent Sterols: c. Cholesta-7,24-dien-3ß-ol ([1]; 2.5 µM): 0.5% | Percent Sterols: d. Zymosterol ([1]; 2.5 µM): 2.0% | Percent Sterols: e. Cholesta-8(14)-en-3ß-ol ([1]; 2.5 µM): 1.7% | Percent Sterols: f. 7 Dehydrocholesterol ([1]; 2.5 µM): 1.4% | Total Sterols (µg/mg protein) ([1]; 2.5 µM): 8.4 µg/mg protein | Percent Sterols: 2. C28 Sterols ([1]; 5.0 µM): 0.7% | Percent Sterols: 3. C29 Sterols ([1]; 5.0 µM): 1.6% | Percent Sterols: Cholesterol ([1]; 5.0 µM): 88% | Percent Sterols: c. Cholesta-7,24-dien-3ß-ol ([1]; 5.0 µM): 0.5% | Percent Sterols: d. Zymosterol ([1]; 5.0 µM): 2.3% | Percent Sterols: e. Cholesta-8(14)-en-3ß-ol ([1]; 5.0 µM): 2.3% | Percent Sterols: f. 7 Dehydrocholesterol ([1]; 5.0 µM): 1.3% | Total Sterols (µg/mg protein) ([1]; 5.0 µM): 10 µg/mg protein | Induction of migratory HNK-1 positive cells by BMP7 (BMP7): not inhibited | His6Hh-C autocleavage reaction in the presence of compound without sterol (His6Hh-C): does not proceed | interference with cholesterol-stimulated autoprocessing (His6Hh-C): does not interfere with autoprocessing | Holoprosencephaly induced in chick embryos (chick embryos; in ovo exposure at the intermediate to definitive streak stage, Fig. 2: 10 µM jervine): induced external malformations characteristic of HPE | embryos displayed normal morphology (chick embryos; in ovo, highest concentrations tested, 50µM): 5/10
